According to PubChem BioAssay AID179 (DTP/NCI, 2004):
“And” between values parts separate entries of the source, which are not always exact repeats. Equal entries are not always repeated. The source made the active and inactive calls.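 The calls were made as follows: active = compounds giving half or more protection of infected cells from virus-caused growth loss, again on retest; inactive = the rest.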 *1 amine or outer side, *2 acyl side, *3 side chain or, on linkers, in order; H or OH if unused. Where a SMILES comes first, the peptide text is derived from it. Bridges are numbered along the chain shown (N, C = ends). [ ]: non-standard residue; d: D form. The star is where a group is joined. X12 = O=C(C1CCCNN1[*:1])[*:2]; For = O=C*

Test system: CEM cells HIV-1 protection, formazan growth assay
Experiment: NCI AIDS Antiviral Assay
Settings: for IC50: measured here: growth of uninfected CEM cells
Outline: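 Soluble formazan readout of cell growth; CEM cells ± HIV-1; 5 drug concs. ≥50% protection → retest; ≥50% again = moderately active; reproducible 100% = confirmed active.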

| Compound | EC50 | IC50 | outcome |
| --- | --- | --- | --- |
| CCCc1cc(=O)oc2c3c(c4c(c12)OC(C)(C)[C@@H](OC(=O)c1ccc(Br)cc1)[C@H]4OC(=O)c1ccc(Br)cc1)O[C@@H](C)[C@H](C)[C@@H]3OC(=O)c1ccc(Br)cc1 | > 200 µM | > 200 µM |  |
| CC(O)(C(=O)N(O)c1ccc(Cl)cc1)c1ccc(Cl)cc1 (stereo not drawn) | > 20 µM | 17.8 µM |  |
| CN(C)CC1CCCC(CN(C)C)C1OC(=O)c1ccccc1 (stereo not drawn) |  |  | inactive |
| CO[C@H](C(=O)O[C@H]1C(=O)N2CCC3CCC1C32C)c1ccccc1 (stereo partly drawn) | > 759 µM | 501 µM |  |
| COc1ccc(NC(C)=O)cc1N1C(=O)/C(=C\c2cc(OC)c(OC)c(OC)c2)SC1c1ccccc1 (stereo not drawn) |  |  | inactive |
| CCOC(=O)C(=O)c1c2cn(O)nc(OC)c-2nc1[N+](=O)[O-] | > 813 µM | 537 µM |  |
| COc1ccc(OC)c(/C=C2/C(=O)N=C(NC(C)=O)N2C)c1 | > 200 µM | > 200 µM |  |
| C[Si]12OCCCN(CCO1)CCO2 |  |  | inactive |
| CSc1nnc(CF)c(=O)[nH]1 | > 200 µM | > 200 µM |  |
| NC(=O)CNC(=O)[C@@H]1C[C@@H](OCCC(=O)O)CN1C(=O)OCc1ccccc1 | > 200 µM | > 200 µM |  |
| O=C1CSC(c2ccccc2)C1C(=O)c1ccc(NCc2nc3ccccc3[nH]2)cc1 (stereo not drawn) | > 200 µM | 8.71 µM |  |
| COC(=O)C1=C(/C=C/C(C)=O)NC(C)=C(C(=O)OC(C)C)C1c1ccccc1Cl (stereo not drawn) | > 200 µM | 0.575 µM |  |
| Cc1c(C(=O)CC(=O)C(=O)Nc2cccc(C(F)(F)F)c2)[n+](=O)c2ccccc2n1[O-] | > 40.7 µM | 3.55 µM |  |
| CC(=NNC(=S)Nc1ccccc1)c1cccc(C(C)=NNC(=S)Nc2ccccc2)n1 | > 200 µM | 9.33 µM |  |
| CCOP(=O)(OCC)/C(C#N)=C/c1ccc(-c2ccc(F)cc2F)o1 |  |  | inactive |
| O=S(=O)(O)c1cc(N=Nc2cc(S(=O)(=O)O)c3ccccc3c2O)ccc1/C=C/c1ccc(N=Nc2cc(S(=O)(=O)O)c3ccccc3c2O)cc1S(=O)(=O)O | 33.9 µM and 12.3 µM | 191 µM and > 200 µM |  |
| COC(=O)c1cc(C(c2cc(C(=O)OC)c(O)c(Br)c2C)C(Cl)Cl)c(C)c(Br)c1O | > 200 µM | 66.1 µM |  |
| Cc1ccc2c(c1)C1(SC(C)C(=O)N1c1ccc(Br)cc1)C(=O)N2 (stereo not drawn) | > 200 µM | 6.31 µM |  |
| CCOC(=O)C(C(C)=O)C(c1ccc(N(C)C)cc1)C(C(C)=O)C(=O)OCC (stereo not drawn) | > 200 µM | > 200 µM |  |
| CC(=O)Oc1ccccc1/C=C/C(=O)/C=C/c1ccccc1OC(C)=O | > 20 µM | 2.14 µM |  |
| O=c1c2nn3c(=O)n(-c4ccccc4)c(=O)c3nn2c(=O)n1-c1ccccc1 | > 200 µM | > 200 µM |  |
| c1cc(-c2cn[nH]c2)cc(-c2cn[nH]c2)c1 |  |  | inactive |

| Compound | EC50 | IC50 | outcome |
| --- | --- | --- | --- |
| COC1/C=C/OC2(C)Oc3c(C)c(O)c4c(O)c(c(C=NN5CCCCCCCCCCCC5)c(O)c4c3C2=O)NC(=O)/C(C)=C/C=C/C(C)C(O)C(C)C(O)C(C)C(OC(C)=O)C1C (stereo not drawn) |  |  | inactive |
| Cc1cc(=O)oc2c(C)c3oc(CBr)c(Br)c3cc12 | > 200 µM | 2.24 µM |  |
| CN1c2ccccc2SC2C(c3ccccc3)=NOC21 (stereo not drawn) | > 200 µM | 45.7 µM |  |
| c1ccc(C2=NC3(CCCCC3)N=C2c2ccccc2)cc1 | > 200 µM | 135 µM |  |
| CCCCCCCCCCCCCCC1OC(=O)c2ccccc21 (stereo not drawn) |  |  | inactive |
| C=CCC(C)(O)CCC(O)(CC=C)CC=C (stereo not drawn) | > 200 µM | > 200 µM |  |
| O=C(OCc1ccccc1)N1CC[C@@H](O)[C@H]1CO | > 200 µM | > 200 µM |  |
| O=C(Nc1ccc(Cl)c(Cl)c1)NN1CCCCCC1 |  |  | inactive |
| CN(C)c1ccc(/C=C/c2ccnc3ccc4ccccc4c23)cc1 | > 79.4 µM | > 79.4 µM |  |
| O=S(=O)(O)OC1CCCC1S(=O)(=O)O (stereo not drawn) | > 200 µM | > 200 µM |  |
| Cc1cc(NCCCCCCCCNc2cc(C)nc3cc(N)ccc23)c2ccc(N)cc2n1 | > 8.13 µM | 4.68 µM |  |
| N#CC(C#N)=C/C=C/c1ccccc1[N+](=O)[O-] | > 200 µM | 3.47 µM |  |
| Cc1ccc2nc(CN3CCCCC3)cc(=O)n2c1 | > 151 µM | > 151 µM |  |
| C[C@@H](CO)C1=C(O)c2ccc3c(c2C(=O)C1=O)CCCC3(C)C | > 200 µM | 15.1 µM |  |
| CCC1(CC(=O)N(C)C)CCCN(C(=O)Oc2ccccc2)C1 (stereo not drawn) | > 31.6 µM | > 31.6 µM |  |
| OC(C1CCC=NN1C(O)(C(F)(F)F)C(F)(F)F)(C(F)(F)F)C(F)(F)F (stereo not drawn) | > 200 µM | 26.9 µM |  |
| C=C(CCCO)[C@@H]1CC[C@](C)(O)[C@H]1C |  |  | inactive |
| O=C(CSc1nnc(Cc2ccccc2)o1)Nc1ccccc1Cl | > 138 µM | > 138 µM |  |
| COC1OC(COC(C)=O)C(OC(C)=O)C(OC(C)=O)C1NC(=O)N(CCCl)N=O (stereo not drawn) | > 288 µM | 91.2 µM and > 209 µM |  |
| COc1cc(OC)c(OC)cc1/C=C\c1ccnc2ccccc12 | > 30.9 µM | 1.48 µM |  |
| Cc1cc(N=Nc2ccc(C(=O)O)cc2)c(N)c(N=Nc2ccc(N=Nc3ccc(O)c(C(=O)O)c3)cc2)c1N | 38 µM | 195 µM |  |
| CSC12c3cc(C)n(-c4ccc(I)cc4)c3CC(C)(C)CN1C(=O)C2Oc1ccccc1 (stereo not drawn) | > 200 µM | 75.9 µM |  |

| Compound | EC50 | IC50 | outcome |
| --- | --- | --- | --- |
| O=C(NC12CC3CC(CC(C3)C1)C2)C(=O)c1c[nH]c2ccccc12 |  |  | inactive |
| COc1cc(C2(C)SCCCS2)c(I)c(OC)c1OC | > 234 µM | 6.17 µM |  |
| CC1(C)C=CC2=C(O1)C(=O)c1ccccc1C2=O | > 200 µM | 32.4 µM and 26.9 µM |  |
| CCC(C)C(NC=O)C(=O)NC1C(=O)NC(CC(C)C)C(=O)NC(C(C)C)C(=O)N2NCCCC2C(=O)NC(CC(C)C)C(=O)N2NCCCC2C(=O)OC1C (stereo not drawn) (For-ITLV[X12]L[X12]; ester 2-C; configuration not given here) | > 45.7 µM | 25.1 µM |  |
| COc1ccc2nc(CC(C)C)c3c(c2c1)-c1ccccc1C3=O | > 11.2 µM | > 11.2 µM |  |
| COC1/C=C\C=C(/C)C(=O)NC2=CC(=O)C(N)=C(CC(C)CC(OC)C(O)C(C)C=C(C)C1OC(N)=O)C2=O (stereo not drawn) | > 2 µM | 0.0661 µM |  |
| CC(C)(C)C1=Cc2cc3cc(C(C)(C)C)[nH]c(=O)c3cc2S(=O)(=O)N1 | > 7.59 µM | > 7.59 µM |  |
| c1cnc2nc3c4ccccc4c4ccccc4c3nc2c1 | > 35.5 µM | > 35.5 µM |  |
| CCCc1cc(=O)oc2c3c(cc(OC(C)C)c12)O[C@H](C)[C@@H](C)C3=O | 77.6 µM | 120 µM |  |
| O=C(/C=C/c1ccc(C(F)(F)F)cc1)c1c([O-])on[n+]1-c1ccccc1 |  |  | inactive |
| COc1cccc2c(=O)oc(-c3ccccc3C)nc12 | > 200 µM | 45.7 µM |  |
| O=[N+]([O-])c1cccc2nnccc12 | > 200 µM | 22.9 µM |  |
| O=C(c1ccccc1)C1C[C@H]2CO[C@H](c3ccccc3)N2C1=O (stereo partly drawn) | > 200 µM | 69.2 µM |  |
| O=C1CN(C2CCCCC2)CC(=O)N2CCCCN12 | > 200 µM | > 200 µM |  |
| Nc1nc(N)c2c(n1)C(=O)N(Cc1ccccc1)C2 |  |  | inactive |
| CN(C)c1cc2c3c(c1)CCCN3CCC2 | > 200 µM | 11.5 µM |  |
| CN(C)c1ccc(/C=C/C(=O)/C=C/c2ccc(N(C)C)cc2)cc1 | > 4.27 µM | > 4.27 µM |  |
| NC(=O)c1ccc[n+](C2=C([O-])c3ccccc3C(=O)/C2=N\S(=O)(=O)c2ccccc2)c1 | > 200 µM | 11.2 µM |  |
| CC(C)(C)c1cc2ccc(C(N)=O)cc2c(=O)[nH]1 | > 537 µM | 302 µM |  |
| CCOC(=O)/C=C/c1cccc(F)c1 | > 200 µM | > 200 µM |  |
| CCOC(=S)SCCSC | > 200 µM | > 200 µM |  |
| COC(=O)c1sc2c(=O)c(C(=O)OC)c(C(=O)OC)sc2c(=O)c1C(=O)OC | > 151 µM | 12 µM |  |

| Compound | EC50 | IC50 | outcome |
| --- | --- | --- | --- |
| COc1cc2c(c(OC)c1OC)-c1ccc(OC)c(=O)cc1C(NC1=C(Cl)C(=O)c3ccccc3C1=O)CC2 (stereo not drawn) | > 174 µM | 0.0562 µM |  |
| NC(=O)C12CC3CC(CC(Br)(C3)C1)C2 | > 977 µM | 891 µM |  |
| NC(=O)c1ccc2c(c1)S(=O)(=O)c1ccccc1C2=O | > 200 µM | > 200 µM |  |
| CCCCCCCCCCCCCCCCOC(=O)c1cc(O)cc(C(=O)OCCCCCCCCCCCCCCCC)c1 |  |  | inactive |
| Cc1cc(NC[C@H](O)[C@H](O)[C@H](O)CO)c(Sc2cc(=O)[nH]c(=O)[nH]2)cc1C |  |  | inactive |
| COc1ccc(-c2cc(-c3ccc(C)cc3)n(C3OC(COC(C)=O)C(OC(C)=O)C(OC(C)=O)C3OC(C)=O)c(=S)c2C#N)cc1 (stereo not drawn) | > 200 µM | > 200 µM |  |
| Nc1ncnc2c1ncn2[C@@H]1C[C@@H]1CO | > 200 µM | > 200 µM |  |
| CCCNC(=S)/N=C/c1c(O)cc(C)oc1=O | > 200 µM | > 200 µM |  |
| N#C/C(=C\c1ccccc1)C(NO)Nc1ccccc1 (stereo not drawn) | > 135 µM | 64.6 µM |  |
| CCCCCC(/C=N/NC(N)=S)C(O)(C(F)(F)F)C(F)(F)F (stereo not drawn) | > 200 µM | 30.2 µM |  |
| Cc1coc2c1C[C@@]1(C)[C@H](CCC[C@@H]1C)[C@H]2O | > 200 µM | 27.5 µM |  |
| COc1cc(OC)c(OC)cc1/C=C\c1nccc2ccccc12 | > 30.9 µM | 22.4 µM |  |
| O=C1c2ccccc2C(=O)C1(Cl)C1(Cl)C(=O)c2ccccc2C1=O |  |  | inactive |
| CCOC(=O)SC1=NC(C)=CC(C)(C)S1 | 53.7 µM | 145 µM |  |
| CCC12CCCN(CCBr)C1c1c(n(C)c3ccccc13)C(C(=O)OC)C2 (stereo not drawn) | > 27.5 µM | 13.5 µM |  |
| C=CN1C(=O)OC[C@@H]1c1ccccc1 | > 513 µM | > 513 µM |  |
| COc1cc2ccc3c4cc(OC)c(OC(C)C)cc4cnc3c2cc1OC |  |  | inactive |
| Cc1cc(N(CCC#N)CCC#N)ccc1N=Nc1ccccc1[N+](=O)[O-] | > 14.5 µM | > 14.5 µM |  |
| NC(=O)c1n[nH]c(C2OC(CO)C(O)C2O)n1 (stereo not drawn) | > 200 µM | 170 µM |  |
| CCCc1nc(NC#N)nc(C(=O)Nc2ccccc2)c1CC | > 407 µM | > 407 µM |  |
| COc1ccccc1C1(C)SCc2nc3ccccc3n21 (stereo not drawn) | > 87.1 µM | 79.4 µM |  |
